# From patent publication US20250205195A1, “BENZYLOXY-BENZYLAMINYL AMINO ACID DERIVATIVE FOR ADJUSTING TSLP/TSLPR SIGNAL TRANSMISSION” (AMTIXBIO CO., LTD., priority 2021, published 2025)
# Tests used:
# [1] = tested on: HDM-induced atopic dermatitis mice; experiment: HDM (Df cream) atopic dermatitis mouse model, skin-specific memory T cell study; assay type: in vivo, Nc/Nga mice
# Excerpt: Nc/Nga mice (purchased from Central Laboratory Animal, male, 6 weeks old) were used, with 2 mice per group. The experimental animals were allowed to freely access to food and water. Mice were shaved using clippers and depilatory cream before the application of Df cream. Df cream (dermatophagoides farina cream) (Biostir AD, Biostir Incorporation) was applied to the dorsal area of the mice 3 times a week for 4 weeks to induce atopic dermatitis. After confirming lesions induced in all mice, compound 27 of the present invention was applied topically to the skin three times a week for three weeks starting four weeks after the Df cream treatment. In contrast to other examples, this example excluded the simultaneous application of the test drug (compound 27 of the present invention) and the atopic dermatitis-inducing agent during the induction period. The compound of the present invention (8 g/mL and […]) was applied to the skin in a volume of 100 μL. As a positive control, 0.1% dexamethasone was topically applied to the mouse skin for comparison.
# Erythema, hemorrhage, wounds, dryness, swelling, and shedding in mice were observed visually and compared using the SCORAD score. […] FIG. 12 graphically represents the changes in the atopic dermatitis mouse model's skin scores due to the treatment with each test substance (Wilcoxon-signed rank test; P<0.05 with statistically significant three mice were examined from each group).
# A mouse IgE ELISA Kit (BioLegend, San Diego, CA, USA) and a mouse DF-specific IgE ELISA Kit (BioLegend, San Diego, CA, USA) were used according to the manufacturer's instructions to measure IgE in mouse serum and mouse DF-specific IgE. Changes in the levels of total IgE and DF-specific IgE in the serum were presented in FIGS. 13 (a) and (b), respectively.
# Skin tissue changes were examined using Hematoxylin and Eosin (H&E) staining (refer to FIG. 14) (Data are shown as mean±standard deviation (SD). ** P<0.01, * P<0.05). Additionally, changes in eosinophils and mouse epidermal thickness were measured (see FIG. 14).
# The results of the analysis of T cell fractions in the skin of atopic dermatitis mouse models treated with compound 27 of the present invention are presented in FIGS. 16 and 17 (data are shown as mean±standard deviation (SD). ** P<0.01, * P<0.05).
# [2] = tested on: skin-specific T cells; experiment: FACS analysis of T cell fractions in skin tissue isolated from atopic dermatitis patients; assay type: cell-based, human; details: patient skin tissue, 16 g/mL, 8 g/mL
# Excerpt: For tissues isolated from the skin of atopic dermatitis patients (Yonsei Severance Hospital, South Korea) followed by the treatment of the compound 27 of the present invention, T cell fractions were compared, and the results are presented in FIG. 16 (Data are shown as mean standard deviation (SD). ** P<0.01, * P<0.05).
# [3] = tested on: TSLP; experiment: TNF-α-induced TSLP in HaCaT cells (ELISA); assay type: cell-based, human
# Description: Human keratinocyte HaCaT cells (obtained from the Korean Cell Line Bank) were seeded in a 12-well plate at an initial density of 2×10^5 cells/well and cultured at 37° C. for 16 to 24 hours. FK506 (Sigma), compounds 27 and 29 of the present invention were then added to the HaCaT cell culture medium at final concentrations of 0, 1, 2, 4, and 8 µg/mL, and the cells were cultured at 37° C. for 1 hour. Next, to induce TSLP, the culture medium was treated with TNF-α (Sigma-Aldrich, USA) to a final concentration of 100 ng/mL, and the cells were cultured for an additional 24 hours at 37° C. The culture supernatant was collected, and the amount of induced TSLP from HaCaT cells was determined using an ELISA kit (R&D Systems, USA) according to the manufacturer's instructions. […] Under the same conditions, to compare the TSLP reduction efficiency R.R. (Reduction rate) of compound 27, positive control compound and compound 29, equal amounts of compounds 27, 29 and FK506 (Sigma-Aldrich, USA) were pretreated for 1 hour. The amount of TSLP released into the culture supernatant from HaCaT cells stimulated by TNF-α was quantitatively analyzed and presented in Table 3 and FIG. 3 (c).
# [4] = tested on: interleukin-13 (IL-13); experiment: PMA/ionomycin-induced interleukin-13 in RBL-2H3 cells (ELISA); assay type: cell-based, rat; details: RBL-2H3 cells, 0, 1, 2, 4 and 8 µg/mL, 24 h
# Description: RBL-2H3 cells were seeded at an initial density of 2×10^5 cells/well in a 24-well plate and cultured at 37° C. for 16 to 24 hours. Subsequently, compound 27 of the present invention was added to the RBL-2H3 cell culture medium at final concentrations of 0, 1, 2, 4, and 8 µg/mL, and the cells were cultured at 37° C. for 1 hour. Next, to induce interleukin-13, the culture medium was treated with PMA ([…], Sigma-Aldrich, USA) and ionomycin (Sigma-Aldrich, USA) to final concentrations of 50 ng/mL and […], respectively, and the cells were cultured for an additional 24 hours at 37° C. The culture supernatant was then collected, and the amount of induced interleukin-13 from RBL-2H3 cells was determined using an ELISA kit (R&D Systems, USA) according to the manufacturer's instructions. FIG. 2 (b) represents the results. […] This indicates the anti-inflammatory effect of compound 27 of the present invention.
# [5] = HaCaT culture supernatant, TNF-α stimulated, 1 h pretreatment, equal amounts of compounds
smiles,measurement,setting,value
"CCC(NC)C(=O)NCc1ccc(OCc2ccc(C(F)(F)F)cc2)cc1 (racemic) [Compound 27, (R)/(S)-2-(methylamino)-N-(4-((4-trifluoromethyl)benzyl)oxy)benzyl)butanamide]","proportion of skin-specific T cells (CD3+, CD4+, CD69+, CD103+)","[1]; FACS of mouse skin, 16 g/mL, 8 g/mL",concentration-dependent significant decrease
same,numbers of CD69+ T cells and CD103+ T cells,"[1]; FACS of mouse skin, vs 0.1% dexamethasone",statistically significant decrease
same,eosinophil count in skin tissue,"[1]; H&E staining, topical",concentration-dependent decrease
same,epidermal thickness,"[1]; H&E staining, with increasing drug concentration",appeared to thin
same,"atopic dermatitis symptoms (skin scores, FIG. 12)","[1]; […], 8 g/mL topical",improved atopic dermatitis symptoms in a concentration-dependent manner
same,"erythema, hemorrhage, dryness, wounds, swelling and shedding (visual, SCORAD)","[1]; topical, three times a week for three weeks, compound vs 0.1% dexamethasone positive control",significant reduction
same,CD69+ T cells and CD103+ T cells,[2],remarkable reduction
same,proportion of skin-specific T cells,[2],concentration-dependent significant decrease
same,amount of induced TSLP with increasing concentration,"[3]; HaCaT cells, 0, 1, 2, 4 and 8 µg/mL, TNF-α 100 ng/mL, 24 h",decreased
same,R.R (Reduction rate) of TSLP,[3]; [5],54%
same,TSLP,[3]; [5],234 ng/mL
same,amount of induced interleukin-13,[4],decreased proportionally
